In patent publication US9101569B2, “Methods for the treatment of insulin resistance” (UNIVERSITE DE GENEVE, priority 2010, dated 2015):

Tests used:
HFD-induced obese rats [1] = test: Glucose tolerance tests after i.c.v. OT infusion; format: in vivo, rat; conditions: after 7 weeks of HFD, i.c.v. 1.6 nmol/d
Description: The impact of OT-induced changes in peripheral lipid metabolism on glucose tolerance and insulin sensitivity was determined by glucose tolerance tests (GTT). Glucose (75 mg/kg body weight) was intraperitoneally administered 4 h after food removal. Blood glucose levels were measured using a glucose meter (One Touch II; LifeScan) from tail blood samples at 0, 15, 30, 60, 90, and 120 min after glucose injection.
Two glucose tolerance tests (GTT) were performed, a first one after […] of HFD (i.e. before the respective saline and OT treatments) and a second one at the end of the 2 week saline or OT infusion (i.e. after 7 weeks of HFD).

[2] = system: differentiated 3T3-L1 adipocytes; test: Lipid metabolism in differentiated 3T3-L1 adipocytes in vitro; format: cell-based, Murine; conditions: 24 h incubation, 5 μM OT
Description: The in vitro effect of OT on lipid metabolism in differentiated 3T3-L1 adipocytes was assayed as follows. Murine 3T3-L1 fibroblasts were differentiated towards a […] phenotype as previously described (Olson et al., 1997, Mol. Cell. Biol., 2425-2435). In brief, cells were cultured in Dulbecco's modified eagle medium (DMEM) with 4.5 g/l glucose supplemented with 10% heat-inactivated depleted calf serum (DCS) at 37° C./8% CO2. Cells were induced to differentiate, two days post confluence, by sequential incubations with: DMEM 4.5 g/l glucose, 10% fetal bovine serum (FCS) containing 1 μg/ml insulin, 0.25 μM dexamethasone and 0.5 mM isobutylmethylxanthane (IBMX) for 4 days; DMEM 4.5 g/l glucose, 10% FCS containing insulin alone for an additional 4 days; DMEM 4.5 g/l glucose, 10% FCS for 3-4 days. Differentiation was considered achieved when more than 90% of cells display an accumulation of large lipid droplets in their cytoplasm.

wild-type mice = test: Peripheral OT infusion in wild-type littermate mice; format: in vivo; conditions: peripheral 50 nmol/day over 3 days
Description: (§1) The beneficial metabolic effects of OT administration were assayed in the same high-fat diet induced obesity model in rats as in Example 1 and in PPAR-alpha knockout mice (Lee et al., 1995, Mol. Cell. Biol., 15(6):3012-22). HFD-induced obese animals, saline or OT groups (see conditions under Example 1) were subcutaneously infused via minipumps (Alzet®, as above). OT was delivered at a dose of 50 nmol/day/rat during 14 days.
(§2) OT was peripherally administered with 50 nmol/day over 3 days in PPAR-alpha knockout (KO) mice and their wild-type littermates. […] Consistently, OT peripheral infusion promoted an increase in the mRNA expression of PPAR-alpha target genes (Acadm, Acox1, Ehhadh, Ucp3) in wild-type mice, while it had no effect in PPAR-alpha knockouts.

HFD-induced obese rats [3] = test: Plasma measurements after i.c.v. OT infusion in HFD-induced obese rats; format: in vivo, rat
Description: (§3) After three weeks of HFD feeding, rats were submitted to surgical procedures. They were anesthetized with intramuscular injection of ketamine-xylasine (Ketalar®-Rompun®, Parke-Davis and Bayer, Leverkusen, Switzerland) at 40 and 9 mg/kg, respectively, and implanted with a cannula in the right lateral cerebral ventricle fixed on the skull with dental cement, as previously described (Rohner-Jeanrenaud et al., 1989, Endocrinology 124, 733-9). After one week of recovery, the drinking response to i.c.v. injection of Angiotensin II (5 ng/μl) (Novabiochem, Laüfelfingen, Switzerland) was measured to confirm the correct placement of the cannula. At the end of the fifth week of high fat diet feeding, osmotic minipumps (Alzet®, model 2001, Alza Corporation, Cupertino, Calif.) delivering oxytocin (NeoMPS®, Strasbourg, France) or its vehicle (NaCl 0.9%) were subcutaneously implanted and connected to the i.c.v. cannula via a polyethylene catheter, as previously described (Rohner-Jeanrenaud et al., 1989, above). OT was delivered at a dose of 1.6 nmol/day/rat or 16 nmol/day/rat during 14 days. A group of vehicle-infused rats was pair-fed to the amount of food consumed by OT-infused animals in order to assess the effects of OT independently from changes in food intake. The pair-feeding regimen consisted in giving one-third of the daily food amount in the morning and the remaining two-thirds just before onset of darkness. Rats were sacrificed using isoflurane anesthesia (Halocarbon Laboratories, River Edge, N.J.) and rapid decapitation between 09:00 and 13:00 h. Blood samples were collected into EDTA-coated tubes, centrifuged and plasma stored at −20° C. Tissues were rapidly removed, freeze-clamped, and stored at −80° C.
(§4) To determine the effect of OT on peripheral metabolism, levels of plasma glucose, insulin, leptin, FFA, glycerol and TG were determined. Plasma glucose was measured by the glucose oxidase method (Glu, Roche Diagnostics GmbH, Rotkreuz, Switzerland). Plasma non-esterified fatty acid (NEFA) and triglyceride (TG) levels were determined using NEFA C and TG enzymatic PAP150 commercial kits from Wako Chemicals GmbH (Neuss, Germany) and Biomérieux (Marcy l'Etoile, France), respectively. Plasma OT levels were determined using an ELISA, as previously described (Pequeux et al., 2001, Scand. J. Clin. Lab. Invest., 61, 407-415). Plasma glycerol levels were measured using the free Glycerol Reagent (Sigma).

[4] = as above; format: in vivo, rat; conditions: rat, plasma, 1.6 nmol/day/rat; i.c.v. OT 1.6 nmol/d, 14 days; mean ± SEM; read-out: plasma Oxytocin
Description: as §3, §4

HFD-induced obese rats [5] = test: High-fat diet-induced obesity rat model, subcutaneous infusion: body weight gain, food intake, body composition; format: in vivo; conditions: s.c. OT 50 nmol/day, 10 days, independent of food intake
[6] = system: enzymes involved in lipid metabolism; test: Tissue expression of lipid metabolism enzymes (real-time RT-PCR) after i.c.v. OT infusion; format: in vivo, rat; conditions: central OT infusion
HFD-induced obese rats [7] = test: Plasma glycerol after subcutaneous OT infusion in HFD-induced obese rats; format: in vivo, rat; conditions: peripheral (s.c.) OT 50 nmol/day
Description: Another group of the above male Wistar rats were rendered obese as described above and were subcutaneously infused with saline or OT (NeoMPS®, Strasbourg, France) (50 nmol/day/rat) during 14 days.
as §4

[8] = system: PPAR-alpha knockout (KO) mice; test: Peripheral OT infusion in PPAR-alpha knockout mice; format: in vivo; conditions: peripheral 50 nmol/day over 3 days
Description: as §1, §2

[9] = i.c.v. OT 1.6 nmol/d, 14 days, mean ± SEM
[10] = i.c.v. OT 1.6 nmol/d, 14 days, mean ± SEM, listed as Oxytocin

CC[C@H](C)[C@@H]1NC(=O)[C@H](Cc2ccc(O)cc2)NC(=O)[C@@H](N)CSSC[C@@H](C(=O)N2CCC[C@H]2C(=O)N[C@@H](CC(C)C)C(=O)NCC(N)=O)NC(=O)[C@H](CC(N)=O)NC(=O)[C@H](CCC(N)=O)NC1=O [OT, Cys-Tyr-Ile-Gln-Asn-Cys-Pro-Leu-Gly (SEQ ID NO: 1)]
insulin oversecretion during GTT (HFD-induced obese rats [1]): not observed | glucose tolerance (GTT) (HFD-induced obese rats [1]; compared to GTT after 3 weeks of HFD): impairment | OEA content [2]: increased | PPAR-alpha mRNA expression [2]: stimulatory effect | mRNA expression of all the lipid metabolism-related genes affected by central OT infusion [2]: increased | Scd1 mRNA expression ([2]; relative to effect in centrally infused rats): less marked | body weight gain (wild-type mice): significant decrease | mRNA expression of PPAR-alpha target genes (Acadm, Acox1, Ehhadh, Ucp3) (wild-type mice): increase | plasma glycerol levels (HFD-induced obese rats [3]; central (i.c.v.) OT 1.6 nmol/day): increased | plasma 2-AG (HFD-induced obese rats [3]; [9]): 53 ± 4.9 pmol/mL | plasma AEA (HFD-induced obese rats [3]; [9]): 19 ± 2.3 pmol/mL | plasma FFA (HFD-induced obese rats [3]; [9]): unchanged | plasma Glucose (HFD-induced obese rats [3]; [9]): unchanged | plasma Insulin (HFD-induced obese rats [3]; [9]): unchanged | plasma Leptin (HFD-induced obese rats [3]; [9]): unchanged | plasma OEA (HFD-induced obese rats [3]; [9]): 178 ± 15 pmol/mL | plasma Oxytocin (HFD-induced obese rats [3]; [9]): increased | plasma PEA (HFD-induced obese rats [3]; [9]): 1.63 ± 0.15 nmol/mL | plasma TG (HFD-induced obese rats [3]; [9]): decreased | plasma FFA (HFD-induced obese rats [3]; [10]): 0.70 ± 0.06 mmol/L | plasma Glucose (HFD-induced obese rats [3]; [10]): 159.5 ± 4.1 mg/dL | plasma Insulin (HFD-induced obese rats [3]; [10]): 1.7 ± 0.3 ng/mL | plasma Leptin (HFD-induced obese rats [3]; [10]): 11.3 ± 2.2 ng/mL | plasma TG (HFD-induced obese rats [3]; [10]): 0.80 ± 0.05 mmol/L | level at 336 h [4]: 0.0218 ± 0.0058 ng/mL | fat mass (QMR) (HFD-induced obese rats [5]): significant decrease | percent lean body mass (QMR) (HFD-induced obese rats [5]): increase | HSL at the protein level [6]: stimulatory effect | expression of genes involved in fatty acid β-oxidation ([6]; liver): did not modify | plasma glycerol levels (HFD-induced obese rats [7]): increased | body weight gain [8]: did not modify | mRNA expression of PPAR-alpha target genes (Acadm, Acox1, Ehhadh, Ucp3) [8]: no effect
